Among the test systems are Bacillus subtilis; Candida albicans; Escherichia coli; Micrococcus luteus; Proteus mirabilis; Pseudomonas aeruginosa; Saccharomyces cerevisiae; Salmonella typhimurium; Serratia marcescens; Shigella dysenteriae; Escherichia coli HB101; Enterobacter cloacae; Escherichia coli 1; Escherichia coli ML-35p; Klebsiella aerogenes; Staphylococcus aureus; Bacillus megaterium; Escherichia coli ML-35.

Test in all cases: ≥ marks a high value that may be exact or a test limit, other limits are often not marked, values filed in µg/mL are converted to µM
Assay [1] relates to Candida albicans ATCC 64550.
In assay [2] the test system is Escherichia coli ATCC 8739.
Assay [3] relates to Pseudomonas aeruginosa ATCC 9027.
Assay [4] concerns Staphylococcus aureus ATCC 6538.
For assay [5], the system named is Acinetobacter baumannii ATCC 19606.
In assay [6] the test system is Candida krusei ATCC 20029.
For assay [7], the system named is Cryptococcus gattii ATCC 32608.
The test system of assay [8] is Cryptococcus neoformans ATCC 24067.
The test system of assay [9] is Escherichia coli ATCC 25922.
Assay [10] deals with Pseudomonas aeruginosa ATCC 27853.
Assay [11] relates to Staphylococcus aureus ATCC 33591.
For assay [12], the system named is Staphylococcus epidermidis ATCC 12228.
The test system of assay [13] is Corynebacterium glutamicum ATCC 13032.
In assay [14] the test system is Staphylococcus aureus ATCC 9144.
Assay [15] concerns Staphylococcus epidermidis.
The test system of assay [16] is Staphylococcus aureus ATCC 25923.
Assay [17] concerns Pseudomonas aeruginosa PAO1.
Assay [18] has as its system Salmonella enterica subsp. enterica serovar Typhimurium ATCC 14028.

For eight molecules, MIC results are on record in DBAASP.

SMILES strings stand for the structures. In brackets after ≈: the same amount, converted by molar mass. Several values for one entry are separate records, joined by “and”; a condition that tells them apart may be missing. Equal values may be shown once. Bounds are passed on as bounds.

What is called MIC is the smallest concentration in the dilution series that meets the test's criterion for growth inhibition. `NCCCC[C@H](NC(=O)[C@H](Cc1c[nH]c2ccccc12)NC(=O)[C@H](Cc1ccccc1)NC(=O)[C@@H](N)Cc1c[nH]c2ccccc12)C(=O)N[C@@H](Cc1c[nH]c2ccccc12)C(=O)N[C@@H](Cc1c[nH]c2ccccc12)C(=O)N[C@@H](CCCN=C(N)N)C(=O)N[C@@H](CCCN=C(N)N)C(=O)N[C@@H](CCCN=C(N)N)C(=O)N[C@@H](CCCN=C(N)N)C(=O)N[C@@H](CCCN=C(N)N)C(N)=O` [WFWKWWRRRRR]: the MIC in assay [1] is at least 100 µM; in [2], 3.1 µM (≈ 5.64 µg/mL); in [3], 4.6 µM (≈ 8.36 µg/mL); in assay [4], 1.7 µM (≈ 3.09 µg/mL).
Regarding `CC[C@H](C)[C@H](N)C(=O)N[C@@H](Cc1c[nH]c2ccccc12)C(=O)N[C@@H](CC(C)C)C(=O)N[C@H](C(=O)N[C@@H](C)C(=O)N[C@@H](CC(C)C)C(=O)N[C@@H](CCCCN)C(=O)N[C@@H](Cc1ccccc1)C(=O)N[C@@H](CC(C)C)C(=O)NCC(=O)N[C@@H](CCCCN)C(=O)N[C@@H](CC(N)=O)C(=O)N[C@@H](CC(C)C)C(=O)NCC(=O)N[C@@H](CCCCN)C(N)=O)[C@@H](C)O` [IWLTALKFLGKNLGK], the MIC is 5.27 µM (≈ 8.97 µg/mL) in [5]; at least 37.6 µM in assay [6]; 3.73 µM (≈ 6.35 µg/mL) in [7]; 14.9 µM (≈ 25.4 µg/mL) in [8]; 14.9 µM (≈ 25.4 µg/mL) in assay [9]; 37.6 µM (≈ 64 µg/mL) in assay [10]. The MIC in assay [11] stood at 4.7 µM (≈ 8 µg/mL); in [12], 4.18 µM (≈ 7.11 µg/mL).
Consider `CC(C)[C@H](NC(=O)[C@H](CCCCN)NC(=O)[C@H](C)NC(=O)[C@@H](NC(=O)[C@@H](NC(=O)[C@H](CCCN=C(N)N)NC(=O)[C@H](CCCN=C(N)N)NC(=O)[C@H](Cc1c[nH]c2ccccc12)NC(=O)[C@H](Cc1c[nH]c2ccccc12)NC(=O)CN)[C@@H](C)O)C(C)C)C(=O)N[C@@H](CCCN=C(N)N)C(=O)N[C@@H](CC(N)=O)C(=O)N[C@@H](C)C(=O)NCC(=O)N[C@@H](CCCN=C(N)N)C(=O)N[C@@H](CCCCN)C(N)=O` [GWWRRTVAKVRNAGRK], for which the MIC in assay [13] worked out at 0.8 µM (≈ 1.55 µg/mL); in [9] it was 3.1 µM (≈ 6.01 µg/mL); in [10] it was 3.1 µM (≈ 6.01 µg/mL); in assay [14] it was 12.5 µM (≈ 24.3 µg/mL).
With `CC[C@H](C)[C@H](NC(=O)CN)C(=O)N[C@@H](CC(C)C)C(=O)N[C@@H](CC(=O)O)C(=O)N[C@H](C(=O)N[C@@H](CC(C)C)C(=O)N[C@@H](CCCCN)C(=O)N[C@@H](CCC(N)=O)C(=O)N[C@@H](Cc1ccccc1)C(=O)N[C@@H](C)C(=O)N[C@@H](CCCCN)C(=O)NCC(=O)N[C@H](C(=O)NCC(=O)N[C@@H](CCCCN)C(=O)N[C@@H](CC(=O)O)C(=O)N[C@@H](CC(C)C)C(=O)N[C@H](C(=O)N[C@@H](CCCCN)C(=O)NCC(=O)N[C@@H](C)C(=O)N[C@@H](C)C(=O)N[C@@H](CCC(N)=O)C(=O)NCC(=O)O)C(C)C)C(C)C)[C@@H](C)O` [GILDTLKQFAKGVGKDLVKGAAQG], the MIC is at least 41.4 µM in the assay with Bacillus subtilis; above 41.4 µM in the assay with Candida albicans; 20.7 µM (≈ 50 µg/mL) against Escherichia coli; 2.07 µM (≈ 5 µg/mL) in the assay on Micrococcus luteus; 20.7 µM (≈ 50 µg/mL) in the assay on Proteus mirabilis; 20.7 µM (≈ 50 µg/mL) with Pseudomonas aeruginosa. The MIC with Saccharomyces cerevisiae is 20.7 µM (≈ 50 µg/mL); with Salmonella typhimurium it was at least 41.4 µM; in the assay with Serratia marcescens it was at least 41.4 µM; in the assay with Shigella dysenteriae it was 20.7 µM (≈ 50 µg/mL); in [15], 31.1 µM (≈ 75 µg/mL).
Consider `C[C@H](NC(=O)[C@H](Cc1c[nH]c2ccccc12)NC(=O)[C@H](CCCN=C(N)N)NC(=O)[C@@H](N)Cc1ccc(O)cc1)C(=O)N[C@@H](CCCN=C(N)N)C(=O)N[C@@H](Cc1c[nH]c2ccccc12)C(=O)N[C@@H](Cc1c[nH]c2ccccc12)C(=O)N[C@@H](CCCN=C(N)N)C(=O)N[C@@H](CCCN=C(N)N)C(N)=O` [YRWARWWRR], for which the MIC in assay [1] is at least 100 µM; in assay [9], 6.97 µM and 5.22 µM; in [10] it was 3.48 µM (≈ 5 µg/mL); in assay [16], 3.48 µM (≈ 5 µg/mL).
For the molecule `NC(N)=NCCC[C@H](NC(=O)[C@@H](N)CO)C(=O)N[C@@H](Cc1c[nH]c2ccccc12)C(=O)N1CCC[C@H]1C(=O)N[C@@H](CO)C(=O)N1CCC[C@H]1C(=O)NCC(=O)N[C@@H](CCCN=C(N)N)C(=O)N1CCC[C@H]1C(=O)N[C@@H](CCCN=C(N)N)C(=O)N1CCC[C@H]1C(=O)N[C@@H](Cc1ccccc1)C(=O)N1CCC[C@H]1C(=O)NCC(=O)O` [SRWPSPGRPRPFPG], the MIC is at least 100 µM in assay [13]; above 100 µM in assay [9]; at least 100 µM in the assay with Escherichia coli HB101; above 100 µM in assay [10]; at least 100 µM in assay [14].
For `CC(C)C[C@H](NC(=O)[C@H](CCCCN)NC(=O)[C@H](CCCCN)NC(=O)[C@H](Cc1ccccc1)NC(=O)[C@H](Cc1ccccc1)NC(=O)[C@H](CCCCN)NC(=O)[C@H](CCCCN)NC(=O)[C@@H](N)Cc1ccccc1)C(=O)N[C@@H](CCCCN)C(=O)N[C@@H](CC(N)=O)C(=O)N[C@@H](CO)C(=O)N[C@H](C(=O)N[C@@H](CCCCN)C(=O)N[C@@H](CCCCN)C(=O)N[C@@H](CCCN=C(N)N)C(=O)O)C(C)C` [FKKFFKKLKNSVKKR], the minimum inhibitory concentration (MIC) with Enterobacter cloacae turned out to be 4.15 µM (≈ 8 µg/mL); in the assay on Escherichia coli 1 it was 2.6 µM (≈ 5 µg/mL); in [9], 6.75 µM (≈ 13 µg/mL); against Escherichia coli ML-35p, 2.6 µM (≈ 5 µg/mL); with Escherichia coli, 6.23 µM (≈ 12 µg/mL); against Klebsiella aerogenes it was 8.82 µM (≈ 17 µg/mL). Besides, the MIC in assay [10] was 4.15 µM (≈ 8 µg/mL); in [17] it was 3.63 µM (≈ 7 µg/mL); with Pseudomonas aeruginosa, 3.63 µM (≈ 7 µg/mL); in assay [16], 21.3 µM (≈ 41 µg/mL); with Staphylococcus aureus, 3.63 µM (≈ 7 µg/mL).
`CC[C@H](C)[C@H](NC(=O)[C@H](CCCCN)NC(=O)[C@H](CCCCN)NC(=O)[C@H](CC(C)C)NC(=O)[C@H](CCCCN)NC(=O)[C@H](CCC(=O)O)NC(=O)[C@H](CCCCN)NC(=O)[C@@H](NC(=O)[C@H](CCCCN)NC(=O)[C@H](CC(N)=O)NC(=O)[C@H](CCCN=C(N)N)NC(=O)[C@H](C)NC(=O)[C@H](CCCCN)NC(=O)[C@H](CCCN=C(N)N)NC(=O)[C@H](CC(C)C)NC(=O)[C@H](CCCN=C(N)N)NC(=O)[C@H](CCCCN)NC(=O)[C@H](CCCN=C(N)N)NC(=O)[C@H](CC(C)C)NC(=O)CN)[C@@H](C)CC)C(=O)O` [GLRKRLRKARNKIKEKLKKI]: the MIC with Bacillus megaterium was 8 µM (≈ 19.8 µg/mL); in [9], 4 µM (≈ 9.91 µg/mL); in the assay with Escherichia coli ML-35 it was 4 µM (≈ 9.91 µg/mL); in assay [10] it was 1 µM (≈ 2.48 µg/mL); in assay [18], 16 µM (≈ 39.6 µg/mL); in assay [16], 8 µM (≈ 19.8 µg/mL).
